# Patent publication US20250186408A1, “TREATMENT OF PHARMACORESISTANT EPILEPSY” (Katholieke Universiteit Leuven, priority 2021, published 2025)
# Tested on: EKP-induced epileptiform discharges in zebrafish larvae
# Experiment: Zebrafish EKP seizure model, electrophysiology (non-invasive LFP recordings, PSD analysis)
# Type: in vivo, zebrafish (Danio rerio)
# Settings: 7 dpf larvae; for efficacy against EKP-induced epileptiform discharges 2 μM / efficacy against EKP-induced epileptiform discharges 10 μM: 22 h incubation, mean, normalized PSD 20-90 Hz; for effect on EKP-induced elevated PSD (in words): 22 h
# Protocol: Non-invasive LFP recordings were measured from the midbrain (optic tectum) of 7 dpf zebrafish larvae pre-incubated with VHC only, EKP only, or compound and EKP. […] These steps occurred at 28° C., while further manipulation and electrophysiological recordings occurred at room temperature (±21° C.) and were performed as described before (16, 27). Each recording lasted 600 seconds.
# A power spectral density (PSD) analysis of the recordings was performed using MatLab R2019 software (MATrix LABoratory, USA) as described in (26). The PSD estimate of each LFP recording was summed over each 10 Hz frequency band, ranging from 0 to 160 Hz. Next, the PSD estimates were normalized against the VHC control. Data are expressed as mean±SEM PSD per larva and per condition over the 20-90 Hz region. Outliers were identified via the ROUT test (Q=1%).
# PSD analysis assumes that the epileptiform activity manifests as a high-power oscillation at certain frequencies (26). Thus, if epileptic activity occurs often during the recording an elevated PSD estimate should be found at the corresponding frequency band(s) (26).
compound,measurement,setting,value
"CCSC(=CC(=O)c1ccccc1)c1ccc(C(C)(C)C)cc1 (mixture of isomers) [Compound 5.1, (E/Z)-3-(4-(tert-butyl)phenyl)-3-(ethylthio)-1-phenylprop-2-en-1-one]",efficacy against EKP-induced epileptiform discharges 2 μM,2 μM,36%
"COc1ccccc1C(O)C#Cc1ccc(C(C)(C)C)cc1 (racemic) [Compound 3.1, rac-3-(4-(tert-butyl)phenyl)-1-(2-methoxyphenyl)prop-2-yn-1-ol]",efficacy against EKP-induced epileptiform discharges 2 μM,2 μM,79%
"CC(C)(C)c1ccc(C#CC(O)c2ccccc2O)cc1 (racemic) [Compound 3.2, rac-2-(3-(4-(tert-butyl)phenyl)-1-hydroxyprop-2-yn-1-yl)phenol]",efficacy against EKP-induced epileptiform discharges 2 μM,2 μM,26%
same,efficacy against EKP-induced epileptiform discharges 10 μM,10 μM,57%
"Nc1ncccc1C(O)C#Cc1cccc(Cl)c1 (racemic) [Compound 3.4, rac-1-(2-aminopyridin-3-yl)-3-(3-chlorophenyl)prop-2-yn-1-ol]",efficacy against EKP-induced epileptiform discharges 2 μM,2 μM,7%
same,efficacy against EKP-induced epileptiform discharges 10 μM,10 μM,7%
"Nc1ncccc1C(=O)C#Cc1ccccc1 [Compound 1.1, 1-(2-aminopyridin-3-yl)-3-phenylprop-2-yn-1-one]",efficacy against EKP-induced epileptiform discharges 2 μM,2 μM,65%
"Nc1ncccc1C(=O)C#Cc1ccc(F)cc1 [Compound 1.2, 1-(2-aminopyridin-3-yl)-3-(4-fluorophenyl)prop-2-yn-1-one]",efficacy against EKP-induced epileptiform discharges 2 μM,2 μM,80%
"CC(C)[Si](C#CC(=O)c1cccnc1N)(C(C)C)C(C)C [Compound 1.3, 1-(2-aminopyridin-3-yl)-3-(triisopropylsilyl)prop-2-yn-1-one]",efficacy against EKP-induced epileptiform discharges 2 μM,2 μM,67%
same,efficacy against EKP-induced epileptiform discharges 10 μM,10 μM,−23%
"Nc1ncccc1C(=O)C#CC1CCCCC1 [Compound 1.4, 1-(2-aminopyridin-3-yl)-3-cyclohexylprop-2-yn-1-one]",efficacy against EKP-induced epileptiform discharges 2 μM,2 μM,69%
"CCCCCC#CC(=O)c1cccnc1N [Compound 1.5, 1-(2-aminopyridin-3-yl)oct-2-yn-1-one]",efficacy against EKP-induced epileptiform discharges 2 μM,2 μM,91%
"CC(C)C#CC(=O)c1cccnc1N [Compound 1.6, 1-(2-aminopyridin-3-yl)-4-methylpent-2-yn-1-one]",efficacy against EKP-induced epileptiform discharges 2 μM,2 μM,1%
"Nc1ncccc1C(=O)C#Cc1ccc(Cl)cc1 [Compound 1.7, 1-(2-aminopyridin-3-yl)-3-(4-chlorophenyl)prop-2-yn-1-one]",efficacy against EKP-induced epileptiform discharges 2 μM,2 μM,70%
"COC(=O)c1ccc(C#CC(=O)c2cccnc2N)cc1 [Compound 1.8, methyl 4-(3-(2-aminopyridin-3-yl)-3-oxoprop-1-yn-1-yl)benzoate]",efficacy against EKP-induced epileptiform discharges 2 μM,2 μM,18%
"COc1ccc(C#CC(=O)c2cccnc2N)cc1 [Compound 1.9, 1-(2-aminopyridin-3-yl)-3-(4-methoxyphenyl)prop-2-yn-1-one]",efficacy against EKP-induced epileptiform discharges 2 μM,2 μM,35%
"Nc1ncccc1C(=O)C#Cc1cccc(Cl)c1 [Compound 1.10, 1-(2-aminopyridin-3-yl)-3-(3-chlorophenyl)prop-2-yn-1-one]",efficacy against EKP-induced epileptiform discharges 2 μM,2 μM,−42%
"Nc1ncccc1C(=O)C#Cc1ccc(C(F)(F)F)cc1 [Compound 1.11, 1-(2-aminopyridin-3-yl)-3-(4-(trifluoromethyl)phenyl)prop-2-yn-1-one]",efficacy against EKP-induced epileptiform discharges 2 μM,2 μM,47%
"Cc1ccc(C#CC(=O)c2cccnc2N)cc1 [Compound 1.12, 1-(2-aminopyridin-3-yl)-3-(p-tolyl)prop-2-yn-1-one]",efficacy against EKP-induced epileptiform discharges 2 μM,2 μM,86%
"CC(C)(C)c1ccc(C#CC(=O)c2ccccc2N)cc1 [Compound 1.14, 1-(2-aminophenyl)-3-(4-(tert-butyl)phenyl)prop-2-yn-1-one]",efficacy against EKP-induced epileptiform discharges 2 μM,2 μM,60%
"CC(C)(C)c1ccc(C#CC(=O)c2cccnc2)cc1 [Compound 1.15, 3-(4-(tert-butyl)phenyl)-1-(pyridin-3-yl)prop-2-yn-1-one]",efficacy against EKP-induced epileptiform discharges 2 μM,2 μM,−49%
"CC(C)(C)c1ccc(C#CC(=O)c2ccccc2)cc1 [Compound 1.16, 3-(4-(tert-butyl)phenyl)-1-phenylprop-2-yn-1-one]",efficacy against EKP-induced epileptiform discharges 2 μM,2 μM,38%
"Nc1ncccc1C(=O)C#Cc1cccc(C(F)(F)F)c1 [Compound 1.17, 1-(2-aminopyridin-3-yl)-3-(3-(trifluoromethyl)phenyl)prop-2-yn-1-one]",efficacy against EKP-induced epileptiform discharges 2 μM,2 μM,61%
"COc1ccccc1C(=O)C#Cc1ccc(C(C)(C)C)cc1 [Compound 1.18, 3-(4-(tert-butyl)phenyl)-1-(2-methoxyphenyl)prop-2-yn-1-one]",efficacy against EKP-induced epileptiform discharges 2 μM,2 μM,71%
"CC(C)(C)c1ccc(C#CC(=O)c2ccccc2O)cc1 [Compound 1.19, 3-(4-(tert-butyl)phenyl)-1-(2-hydroxyphenyl)prop-2-yn-1-one]",efficacy against EKP-induced epileptiform discharges 2 μM,2 μM,−23%
"CC(C)(C)c1ccc(C#CC(=O)c2ncccc2N)cc1 [Compound 1.24, 1-(3-aminopyridin-2-yl)-3-(4-(tert-butyl)phenyl)prop-2-yn-1-one]",efficacy against EKP-induced epileptiform discharges 2 μM,2 μM,45%
same,efficacy against EKP-induced epileptiform discharges 10 μM,10 μM,11%
"O=C(C#Cc1cccc(Cl)c1)c1cccnc1 [Compound 1.25, 3-(3-chlorophenyl)-1-(pyridin-3-yl)prop-2-yn-1-one]",efficacy against EKP-induced epileptiform discharges 2 μM,2 μM,−43%
"O=C(C#Cc1cccc(Cl)c1)c1ncc[nH]1 [Compound 1.26, 3-(3-chlorophenyl)-1-(1H-imidazol-2-yl)prop-2-yn-1-one]",efficacy against EKP-induced epileptiform discharges 2 μM,2 μM,51%
"CN(C)c1ncccc1C(=O)C#Cc1cccc(Cl)c1 [Compound 1.27, 3-(3-chlorophenyl)-1-(2-(dimethylamino)pyridin-3-yl)prop-2-yn-1-one]",efficacy against EKP-induced epileptiform discharges 2 μM,2 μM,−52%
"O=C(C#Cc1ccccc1)c1ccccc1 [Compound 1.28, 1,3-diphenylprop-2-yn-1-one]",efficacy against EKP-induced epileptiform discharges 2 μM,2 μM,25%
"COc1ccc(C#CC(=O)c2ccccc2)cc1 [Compound 1.29, 3-(4-methoxyphenyl)-1-phenylprop-2-yn-1-one]",efficacy against EKP-induced epileptiform discharges 2 μM,2 μM,26%
"Cc1ccc(C#CC(=O)c2ccccc2)cc1 [Compound 1.30, 1-phenyl-3-(p-tolyl)prop-2-yn-1-one]",efficacy against EKP-induced epileptiform discharges 2 μM,2 μM,28%
"COc1cccc(C#CC(=O)c2ccccc2)c1 [Compound 1.32, 3-(3-methoxyphenyl)-1-phenylprop-2-yn-1-one]",efficacy against EKP-induced epileptiform discharges 2 μM,2 μM,29%
"Cc1cccc(C#CC(=O)c2ccccc2)c1 [Compound 1.33, 1-phenyl-3-(m-tolyl)prop-2-yn-1-one]",efficacy against EKP-induced epileptiform discharges 2 μM,2 μM,50%
"O=C(C#Cc1cccc(Cl)c1)c1ccccc1 [Compound 1.34, 3-(3-chlorophenyl)-1-phenylprop-2-yn-1-one]",efficacy against EKP-induced epileptiform discharges 2 μM,2 μM,21%
"COc1ccccc1C#CC(=O)c1ccccc1 [Compound 1.36, 3-(2-methoxyphenyl)-1-phenylprop-2-yn-1-one]",efficacy against EKP-induced epileptiform discharges 2 μM,2 μM,52%
"Cc1ccccc1C#CC(=O)c1ccccc1 [Compound 1.37, 1-phenyl-3-(o-tolyl)prop-2-yn-1-one]",efficacy against EKP-induced epileptiform discharges 2 μM,2 μM,28%
"O=C(C#Cc1ccccc1Cl)c1ccccc1 [Compound 1.38, 3-(2-chlorophenyl)-1-phenylprop-2-yn-1-one]",efficacy against EKP-induced epileptiform discharges 2 μM,2 μM,−63%
"CC(C)(C)c1ccc(C#CC(=O)c2cccc(F)c2)cc1 [Compound 1.39, 3-(4-(tert-butyl)phenyl)-1-(3-fluorophenyl)prop-2-yn-1-one]",efficacy against EKP-induced epileptiform discharges 2 μM,2 μM,−61%
"Nc1ccccc1C(=O)C#Cc1cccc(Cl)c1 [Compound 1.40, 1-(2-aminophenyl)-3-(3-chlorophenyl)prop-2-yn-1-one]",efficacy against EKP-induced epileptiform discharges 2 μM,2 μM,82%
"CC(C)(C)c1ccc(C#CC=O)cc1 [Compound 2.1, 3-(4-(tert-butyl)phenyl)propiolaldehyde]",efficacy against EKP-induced epileptiform discharges 2 μM,2 μM,30%
"Nc1ncccc1C(=O)/C=C/c1cccc(Cl)c1 [Compound 5.2, (E)-1-(2-aminopyridin-3-yl)-3-(3-chlorophenyl)prop-2-en-1-one]",efficacy against EKP-induced epileptiform discharges 2 μM,2 μM,55%
"CC(C)(C)c1ccc(C2=CC(c3ccccc3)=CS(C)(=O)=C2)cc1 (stereo not shown) [Compound 9.1, 3-(4-(tert-butyl)phenyl)-1-methyl-5-phenyl-1λ^6-thiopyran 1-oxide]",efficacy against EKP-induced epileptiform discharges 2 μM,2 μM,51%
"Cn1nc(C#Cc2cccc(Cl)c2)c2cccnc21 [Compound 10.2, 3-((3-chlorophenyl)ethynyl)-1-methyl-1H-pyrazolo[3,4-b]pyridine]",effect on EKP-induced elevated PSD (in words),2 μM,did not
same,efficacy against EKP-induced epileptiform discharges 2 μM,2 μM,19%
same,effect on EKP-induced elevated PSD (in words),10 μM,significant decrease
same,efficacy against EKP-induced epileptiform discharges 10 μM,10 μM,76%
"Clc1cccc(C#Cc2n[nH]c3ccccc23)c1 [Compound 11.1, 3-((3-chlorophenyl)ethynyl)-1H-indazole]",efficacy against EKP-induced epileptiform discharges 2 μM,2 μM,60%
